Test results taken from publication PMC11876601 (Molecular Systems Biology, 2025).
Read-outs that look alike come from different tables or passages of the source.

How the values were obtained:
Test in all cases: cells
[1] = system: BxPC-3; design: ATPlite luminescence viability of PDAC cell lines, 11-dose single-agent curves, 4-parameter fit; details: Homo sapiens, BXPC-3, 72 h, read-out: EC50 [nM]
Method: (§1) Afterward, small amounts were transferred to 384-well intermediate plates (Greiner Bio-One GmbH, Germany). […] For drug combination screening, 1000 to 5000 cells were seeded into 384-well plates (CulturPlate™, Perkin Elmer, MA, USA) using a Multidrop™ Combi Reagent Dispenser (Thermo Scientific, MA, USA) in 50 µl medium per well 24 h prior to drug treatment (seeding densities see Appendix Table S1). […] The final DMSO concentration in each well was 0.2%. […] Eight wells per plate without library drug served as negative controls, and sixteen wells per plate containing 5 µM Staurosporine served as positive controls. […] Next, we analyzed the drug sensitivity of immortalized duct cell line HPDE to detect effects unrelated to pancreatic cancer.

[2] = system: MiaPaCa-2; design: ATPlite luminescence viability of PDAC cell lines, 11-dose single-agent curves, 4-parameter fit; details: Homo sapiens, MIA PaCa-2, 72 h, read-out: EC50 [nM]
Method: as §1

[3] = system: FAMPAC; design: ATPlite luminescence viability of PDAC cell lines, 11-dose single-agent curves, 4-parameter fit; details: 72 h, read-out: EC50 [nM]
Method: as §1

[4] = system: Suit2-07; design: ATPlite luminescence viability of PDAC cell lines, 11-dose single-agent curves, 4-parameter fit; details: 72 h, read-out: EC50 [nM]
Method: as §1

[5] = system: PSN-1; design: Viability of PDAC cell lines, ATPlite luminescence, 11-dose single-agent curve fit; details: Homo sapiens, PSN1, 72 h, read-out: EC50 [nM]
Method: as §1

[6] = system: PaTu-8988-T; design: Viability of PDAC cell lines, ATPlite luminescence, 11-dose single-agent curve fit; details: Homo sapiens, PaTu 8988t, 72 h, read-out: EC50 [nM]
Method: as §1

[7] = system: Capan-1; design: Viability of PDAC cell lines, ATPlite luminescence, 11-dose single-agent curve fit; details: Homo sapiens, CAPAN-1, 72 h, read-out: EC50 [nM]
Method: as §1

[8] = system: PANC-1; design: Viability of PDAC cell lines, ATPlite luminescence, 11-dose single-agent curve fit; details: Homo sapiens, PANC-1, 72 h, read-out: EC50 [nM]
Method: as §1

[9] = system: Dan-G; design: Viability of PDAC cell lines, ATPlite luminescence, 11-dose single-agent curve fit; details: 72 h, read-out: EC50 [nM]
Method: as §1

[10] = system: HPDE; design: Viability of PDAC cell lines, ATPlite luminescence, 11-dose single-agent curve fit; details: HPDE, 72 h, read-out: EC50 [nM]
Method: as §1

[11] = system: HuP-T4; design: Viability of PDAC cell lines, ATPlite luminescence, 11-dose single-agent curve fit; details: Homo sapiens, HuP-T4, 72 h, read-out: EC50 [nM]
Method: as §1

[12] = system: Colo-357; design: Viability of PDAC cell lines, ATPlite luminescence, 11-dose single-agent curve fit; details: Homo sapiens, COLO357, 72 h, read-out: EC50 [nM]
Method: as §1

[13] = system: AsPC-1; design: Viability of PDAC cell lines, ATPlite luminescence, 11-dose single-agent curve fit; details: Homo sapiens, ASPC1, 72 h, read-out: EC50 [nM]
Method: as §1

[14] = system: PSN-1; design: ATPlite luminescence viability of PDAC cell lines, 11-dose single-agent curves, 4-parameter fit; details: Homo sapiens, PSN1, 72 h, read-out: EC50 [nM]
Method: as §1

[15] = system: Suit2-07; design: Viability of PDAC cell lines, ATPlite luminescence, 11-dose single-agent curve fit; details: 72 h, read-out: EC50 [nM]
Method: as §1

[16] = system: BxPC-3; design: Viability of PDAC cell lines, ATPlite luminescence, 11-dose single-agent curve fit; details: Homo sapiens, BXPC-3, 72 h, read-out: EC50 [nM]
Method: as §1

[17] = system: MiaPaCa-2; design: Viability of PDAC cell lines, ATPlite luminescence, 11-dose single-agent curve fit; details: Homo sapiens, MIA PaCa-2, 72 h, read-out: EC50 [nM]
Method: as §1

[18] = system: FAMPAC; design: Viability of PDAC cell lines, ATPlite luminescence, 11-dose single-agent curve fit; details: 72 h, read-out: EC50 [nM]
Method: as §1

[19] = system: Dan-G; design: ATPlite luminescence viability of PDAC cell lines, 11-dose single-agent curves, 4-parameter fit; details: 72 h, read-out: EC50 [nM]
Method: as §1

SMILES | EC50 [1] [nM] | EC50 [2] [nM] | EC50 [3] [nM] | EC50 [4] [nM] | EC50 [5] [nM] | EC50 [6] [nM] | EC50 [7] [nM] | EC50 [8] [nM] | EC50 [9] [nM] | EC50 [10] [nM] | EC50 [11] [nM] | EC50 [12] [nM] | EC50 [13] [nM] | EC50 [14] [nM] | EC50 [15] [nM] | EC50 [16] [nM] | EC50 [17] [nM] | EC50 [18] [nM] | EC50 [19] [nM]
CCN1C(=O)N(c2c(F)c(OC)cc(OC)c2F)Cc2cnc3[nH]c(CN4CCOCC4)cc3c21 [Pemigatinib] | 1370 | > 10000 | 3320 | 3040 | 2710 | 3280 | 2030 | 442 | 2970 | 3380 | 3.44 | 2990 | 3480 | – | – | – | – | – | –
CNC(=O)c1ccc(Nc2ncc(C(F)(F)F)c(NCc3nccnc3N(C)S(C)(=O)=O)n2)cc1 [Defactinib] | > 10000 | 4660 | > 10000 | – | – | 9750 | 3400 | 142 | 7590 | 3690 | 441 | 3820 | 3350 | 4590 | > 10000 | – | – | – | –
Cc1ccc(F)c(NC(=O)Nc2ccc(-c3cccc4[nH]nc(N)c34)cc2)c1 [Linifanib] | – | – | – | – | > 10000 | – | 47 | 1420 | 27.9 | 311 | 1100 | 131 | 32.7 | – | 864 | 792 | 1830 | 3290 | –
CN1CC[C@@H](NC(=O)Nc2ccc(C#N)cc2)C[C@@H]1c1nc2ccccc2[nH]1 [Glasdegib] | – | – | – | – | 846 | 0.5 | – | 2580 | 176 | 110 | 208 | 352 | 28.4 | – | 523 | 164 | > 10000 | 1230 | –
C[C@H](Nc1ncnc2nc[nH]c12)c1cc2cccc(Cl)c2c(=O)n1-c1ccccc1 [Duvelisib] | – | – | – | – | 883 | > 10000 | 4650 | 1590 | – | 6900 | 109 | 3070 | > 10000 | – | > 10000 | 2870 | 2130 | 4250 | 5640
[2H]C([2H])([2H])NC(=O)c1nnc(NC(=O)C2CC2)cc1Nc1cccc(-c2ncn(C)n2)c1OC [BMS986165] | – | – | – | – | 7570 | > 10000 | – | 2070 | 3350 | 2330 | 4610 | 9560 | 4870 | – | > 10000 | > 10000 | 7220 | > 10000 | –
C=CC(=O)N1CCC(CNc2ncnc(N)c2-c2ccc(Oc3ccccc3)cc2)CC1 [Evobrutinib] | – | – | – | – | 571 | 213 | > 10000 | > 10000 | 493 | 2.61 | – | 31.5 | 1070 | – | 1.96 | 2910 | 4490 | – | –
CC(C)(C)c1cc(NC(=O)Nc2ccc(-c3cn4c(n3)sc3cc(OCCN5CCOCC5)ccc34)cc2)no1 [Quizartinib] | – | 1410 | – | – | 1470 | 96.7 | 1420 | 515 | 932 | 2670 | 1020 | 61.4 | 1530 | – | 155 | 1570 | – | 2490 | –
O=C(Nc1nc2cccc(-c3ccc(CN4CCS(=O)(=O)CC4)cc3)n2n1)C1CC1 [Filgotinib] | – | > 10000 | 8160 | – | – | > 10000 | 5940 | 43.9 | 6150 | 1990 | 172 | 3490 | 305 | 7590 | 2150 | 9420 | – | – | –
CCc1cc2c(cc1N1CCC(N3CCOCC3)CC1)C(C)(C)c1[nH]c3cc(C#N)ccc3c1C2=O [Alectinib] | – | – | – | – | 0.05 | 28 | – | 80.3 | > 10000 | 2130 | 680 | 220 | – | – | 2390 | 99.3 | 71.8 | 9090 | –
Cc1cc2c(F)c(Oc3ncnn4cc(OC[C@@H](C)O)c(C)c34)ccc2[nH]1 [Brivanib] | – | – | – | – | > 10000 | 9580 | > 10000 | > 10000 | > 10000 | > 10000 | 5470 | 8830 | 156 | – | > 10000 | 3.14 | 7100 | – | –
NC(=O)c1cnc2[nH]ccc2c1N[C@@H]1[C@@H]2CC3C[C@H]1C[C@@](O)(C3)C2 [Peficitinib] | – | 3920 | – | – | – | > 10000 | > 10000 | 282 | 3590 | 8470 | 116 | 6330 | > 10000 | 6420 | 2770 | > 10000 | – | > 10000 | –
